Source: ChEMBL document CHEMBL4376820, “Homodimeric Tobramycin Adjuvant Repurposes Novobiocin as an Effective Antibacterial Agent against Gram-Negative Bacteria” (J Med Chem, 2019)
Activity calls are given as the source filed them. The rule behind the calls is not given here.

Experiments:
Pseudomonas aeruginosa = experiment: Potentiation of novobiocin-induced antibacterial activity against wild type Pseudomonas aeruginosa PAO1 incubated for 18 hrs by CLSI protocol based assay; format: functional, organism-based
Acinetobacter baumannii [1] = experiment: Antibacterial activity against novobiocin-resistant Acinetobacter baumannii ATCC 17978 mutant generated from seven serial passages by checkerboard assay; format: functional
Acinetobacter baumannii [2] = experiment: Antibacterial activity against colistin-resistant Acinetobacter baumannii ATCC 17978 mutant generated from seven serial passages by checkerboard assay; format: functional
Acinetobacter baumannii [3] = experiment: Antibacterial activity against novobiocin and test compound-resistant Acinetobacter baumannii ATCC 17978 mutant generated from seven serial passages in presence of novobiocin by checkerboard assay; format: functional
Acinetobacter baumannii [4] = experiment: Antibacterial activity against wild type Acinetobacter baumannii ATCC 17978 by checkerboard assay; format: functional

SMILES | Activity (Pseudomonas aeruginosa) | MIC (Acinetobacter baumannii [4]) | other results
[N-]=[N+]=NCCCCO[C@@H]1[C@@H](O[C@H]2O[C@H](CO)[C@@H](O)[C@H](N)[C@H]2O)[C@H](N)C[C@H](N)[C@H]1O[C@H]1O[C@H](CN)[C@@H](O)C[C@H]1N | inactive |  | 
O=C(N[C@H](CO)[C@H](O)c1ccc([N+](=O)[O-])cc1)C(Cl)Cl [CHLORAMPHENICOL] |  | 64 µg/mL | MIC (Acinetobacter baumannii [1]): 32 µg/mL; MIC (Acinetobacter baumannii [2]): 8 µg/mL; MIC (Acinetobacter baumannii [3]): 64 µg/mL
O=C(O)c1cn(C2CC2)c2cc(N3CCNCC3)c(F)cc2c1=O [CIPROFLOXACIN] |  | 1 µg/mL | 
CC(C)(C)OC(=O)NC[C@H]1O[C@H](O[C@H]2[C@H](OCCCCc3cn(CCCCO[C@@H]4[C@@H](O[C@H]5O[C@H](CO)[C@@H](O)[C@H](NC(=O)OC(C)(C)C)[C@H]5O)[C@H](NC(=O)OC(C)(C)C)C[C@H](NC(=O)OC(C)(C)C)[C@H]4O[C@H]4O[C@H](CNC(=O)OC(C)(C)C)[C@@H](O)C[C@H]4NC(=O)OC(C)(C)C)nn3)[C@@H](O[C@H]3O[C@H](CO)[C@@H](O)[C@H](NC(=O)OC(C)(C)C)[C@H]3O)[C@H](NC(=O)OC(C)(C)C)C[C@@H]2NC(=O)OC(C)(C)C)[C@H](NC(=O)OC(C)(C)C)C[C@@H]1O | inactive |  | 
C#CCCCCO[C@@H]1[C@@H](O[C@H]2O[C@H](CO)[C@@H](O)[C@H](N)[C@H]2O)[C@H](N)C[C@H](N)[C@H]1O[C@H]1O[C@H](CN)[C@@H](O)C[C@H]1N | inactive |  | 
